Experimental data published in patent US8927761B2, “Form of hexyl-5-aminolevulinate hydrochloride and methods of using the same” (Photocure ASA, priority 2012, dated 2015).

Assay: Hot stage microscopy: conversion between solid forms on heating
Format: physicochemical
Conditions: solid state; conversion to the new Form shown by observed change in crystal morphology
Experimental: Hot stage microscopy was performed using a Linkam hot stage (model FTIR 600) mounted on a Leica DM LP microscope. Sample was observed using a 20× objective. Sample was placed on a coverslip, and a second coverslip was then placed over the sample. Each sample was visually observed as the stage was heated. The hot stage was calibrated using USP melting point standards.
Characteristic data for new Form C was obtained with X-ray powder diffraction (XRPD), differential scanning calorimetry (DSC), hot stage microscopy, infrared spectroscopy (IR), Raman spectroscopy, and solid state ^13C cross polarization magic angle spinning nuclear magnetic resonance spectroscopy. The new Form is a crystalline material that melts near 99° C. […] The particle morphology is observed as rays, lathe, and/or blades. The new Form is the thermodynamically stable form above 65° C.

- temperature range in which the new Form is the thermodynamically stable form: above 65 °C
Compound: CCCCCCOC(=O)CCC(=O)CN.Cl [Form C, hexyl 5-aminolevulinate hydrochloride]
